Measured values reported in US20220389477A1, “METHOD FOR EVALUATING ANTIBIOTIC SUSCEPTIBILITY” (Vrije Universiteit Brussel, priority 2019, published 2022).
Values after ≈ are worked out from the molar mass of the structure shown.

How the values were obtained:
Format in all cases: cell-based
[1] = tested on: Klebsiella pneumonia culture; test: Optical third-derivative MIC method, culture in broth; details: for MIC: Klebsiella pneumoniae
From the text: The method of FIG. 1 starts at a time equal to zero, t0 (1). Preferably, said t0 is the moment a pure bacteria culture is finished being prepared. Alternatively, said t0 is the moment all wells contain both said bacteria culture and said antimicrobial drug. After the starting of the experiment each well is periodically illuminated with a light source and the intensity of the transmitted light is detected with a photodetector (2). Preferably, each well is illuminated and the intensity of the transmitted light is detected every hour (2). More preferably, each well is illuminated and the intensity of the transmitted light is detected every 5 to 15 min. After a predetermined time length, preferably after 4 hours, a first, a second and a third derivative of said measured intensity is calculated (3) in a first and a second time frame for each well. Preferably, said second time frame is the last measured time frame after the test has been running for said predetermined time length, and said first time frame is the time frame preceding the second time frame. More preferably, said first time frame is between two and three hours and said second time frame is between three and four hours. After the calculation of said derivatives, said first derivative in said second time frame of said reference well is compared to a growth speed threshold value (4). Preferably, said growth speed threshold value is 0.166 (4). If said first derivative in said second time frame of said reference well is larger than or equal to said growth speed threshold value said bacteria culture is classified as Type I (4). If said first derivative in said second time frame of said reference well is smaller than said growth speed threshold value said bacteria culture is classified as Type II (4). Subsequently, independent of the classification of the bacteria culture according to the two types, the method comprises the following steps which are performed for each well or for all wells except said reference well. Both said first and said second time frames are evaluated to see if there is an inflection point present in the second derivative in said first and/or said second time frame (5).
If said first and/or said second time frame comprise said inflection point than said third derivative in said first time frame is compared to said third derivative in said second time frame (6). If said third derivative in said first time frame is larger than said third derivative in said second time frame, then said first time frame and said second time frame are selected as a first and second time frame to be used in a minimal inhibitory concentration determination method (10). If said third derivative in said first time frame is not larger than said third derivative in said second time frame, then said well is illuminated again after a certain time period, preferably an hour, more preferably 5 to 15 min after said predetermined time length said, with a light source and the intensity of the transmitted light is detected with a photodetector forming a new time frame subsequent to said second time frame (7). A third derivative, and possibly also a first and/or a second derivative, is calculated in said new time frame (7). Further, in step (7) a new first time frame is put equal to said second time frame and a new second time frame to equal to said new time frame. Subsequently, said third derivative in said new first time frame is compared to said third derivative in said new second time frame (8). If said derivative in said new first time frame is larger than said third derivative in said new second time frame, then said new first time frame and said new second time frame are selected as a first and second time frame to be used in a minimal inhibitory concentration determination method (10). […]

Acinetobacter Species [2] = test: E-test; details: culture AC/2990
Acinetobacter Species [3] = test: Broth microdilution (BMD); details: culture AC/2990
[4] = tested on: Klebsiella pneumonia culture; test: E-test; details: Klebsiella pneumoniae
[5] = tested on: Klebsiella pneumonia culture; test: Broth microdilution (BMD); details: Klebsiella pneumoniae

- MIC ([1]; 4 h, KP/38.3002, FIG. 5C, Table 5, 4 h-5 h, read-out: MIC (60%) T2): 8 µg/mL (≈ 26.7 µM)
- MIC ([1]; 4 h, KP/38.3002, FIG. 5C, Table 5, 4 h-5 h, read-out: MIC (75%) T2): 8 µg/mL (≈ 26.7 µM)
- MIC ([1]; 4 h, KP/153.4346, 4 h-5 h, read-out: MIC (25%) T2): > 256 µg/mL
- MIC ([1]; 4 h, KP/153.4346, 4 h-5 h, read-out: MIC (40%) T2): > 256 µg/mL
- MIC ([1]; 4 h, KP/153.4346, 4 h-5 h, read-out: MIC (60%) T2): 16 µg/mL (≈ 53.4 µM)
- MIC ([1]; 4 h, KP/153.4346, 4 h-5 h, read-out: MIC (75%) T2): 16 µg/mL (≈ 53.4 µM)
- MIC ([1]; 4 h, MP/072.3489, 4 h-5 h, read-out: MIC (25%) T2): 16 µg/mL (≈ 53.4 µM)
- MIC ([1]; 4 h, MP/072.3489, 4 h-5 h, read-out: MIC (40%) T2): 8 µg/mL (≈ 26.7 µM)
- MIC ([1]; 4 h, MP/072.3489, 4 h-5 h, read-out: MIC (60%) T2): 8 µg/mL (≈ 26.7 µM)
- MIC ([1]; 4 h, MP/072.3489, 4 h-5 h, read-out: MIC (75%) T2): 8 µg/mL (≈ 26.7 µM)
- MIC ([1]; 5 h, KP/38.3002, FIG. 5H, both repetitions, read-out: MIC value determined by the method): 16 µg/mL (≈ 53.4 µM)
- MIC ([1]; KP/38.3002, FIG. 5C, overall conclusion, read-out: MIC value determined by the method): 16 µg/mL (≈ 53.4 µM)
- MIC ([1]; KP/38.3002, FIG. 5H repetition, Table 10, 3 h-4 h, read-out: MIC (25%) T1): 0.5 µg/mL (≈ 1.67 µM)
- MIC ([1]; KP/38.3002, FIG. 5H repetition, Table 10, 3 h-4 h, read-out: MIC (40%) T1): 0.5 µg/mL (≈ 1.67 µM)
- MIC ([1]; KP/38.3002, FIG. 5H repetition, Table 10, 3 h-4 h, read-out: MIC (60%) T1): 0.5 µg/mL (≈ 1.67 µM)
- MIC ([1]; KP/38.3002, FIG. 5H repetition, Table 10, 3 h-4 h, read-out: MIC (75%) T1): 0.5 µg/mL (≈ 1.67 µM)
- MIC ([1]; KP/38.3002, FIG. 5H repetition, Table 10, 4 h-5 h, read-out: MIC (25%) T2): 16 µg/mL (≈ 53.4 µM)
- MIC ([1]; KP/38.3002, FIG. 5H repetition, Table 10, 4 h-5 h, read-out: MIC (40%) T2): 16 µg/mL (≈ 53.4 µM)
- MIC ([1]; KP/38.3002, FIG. 5H repetition, Table 10, 4 h-5 h, read-out: MIC (60%) T2): 16 µg/mL (≈ 53.4 µM)
- MIC ([1]; KP/38.3002, FIG. 5H repetition, Table 10, 4 h-5 h, read-out: MIC (75%) T2): 8 µg/mL (≈ 26.7 µM)
- MIC ([1]; KP/38.3002, FIG. 5H repetition, Table 11, 3 h-4 h, read-out: MIC (25%) T1): 16 µg/mL (≈ 53.4 µM)
- MIC ([1]; KP/38.3002, FIG. 5H repetition, Table 11, 3 h-4 h, read-out: MIC (40%) T1): 0.25 µg/mL (≈ 0.835 µM)
- MIC ([1]; KP/38.3002, FIG. 5H repetition, Table 11, 3 h-4 h, read-out: MIC (60%) T1): 0.25 µg/mL (≈ 0.835 µM)
- MIC ([1]; KP/38.3002, FIG. 5H repetition, Table 11, 3 h-4 h, read-out: MIC (75%) T1): 0.25 µg/mL (≈ 0.835 µM)
- MIC ([1]; KP/38.3002, FIG. 5H repetition, Table 11, 4 h-5 h, read-out: MIC (25%) T2): 16 µg/mL (≈ 53.4 µM)
- MIC ([1]; KP/38.3002, FIG. 5H repetition, Table 11, 4 h-5 h, read-out: MIC (40%) T2): 8 µg/mL (≈ 26.7 µM)
- MIC ([1]; KP/38.3002, FIG. 5H repetition, Table 11, 4 h-5 h, read-out: MIC (60%) T2): 8 µg/mL (≈ 26.7 µM)
- MIC ([1]; KP/38.3002, FIG. 5H repetition, Table 11, 4 h-5 h, read-out: MIC (75%) T2): 8 µg/mL (≈ 26.7 µM)
- MIC ([1]; KP/153.4346, FIG. 5G, overall conclusion, read-out: MIC value determined by the method): > 256 µg/mL
- MIC ([1]; MP/072.3489, FIG. 5B, overall conclusion, read-out: MIC value determined by the method): 16 µg/mL (≈ 53.4 µM)
- MIC (Acinetobacter Species [2]): 0.25 µg/mL (≈ 0.835 µM)
- MIC (Acinetobacter Species [3]): 0.25 µg/mL (≈ 0.835 µM)
- MIC ([4]; culture KP/38.3002): 16 µg/mL (≈ 53.4 µM)
- MIC ([4]; culture KP/153.4346): > 32 µg/mL
- MIC ([4]; culture MP/072.3489): 16 µg/mL (≈ 53.4 µM)
- MIC ([5]; culture KP/38.3002): 16 µg/mL (≈ 53.4 µM)
- MIC ([5]; culture KP/153.4346): 16 µg/mL (≈ 53.4 µM)
- MIC ([5]; culture MP/072.3489): 32 µg/mL (≈ 107 µM)
SMILES: C[C@@H](O)[C@H]1C(=O)N2C(C(=O)O)=C(SCCN=CN)C[C@H]12 [imipenem]
- HR? at MIC (25%) ([1]; MP/072.3489, ratio MIC T2/T1): yes (If the ratio of the MIC value in the second time frame over the MIC value in the first time frame is higher than or equal to 8 then the ratio is labelled to be heteroresistant)
- HR? at MIC (40%) ([1]; MP/072.3489, ratio MIC T2/T1): yes (If the ratio of the MIC value in the second time frame over the MIC value in the first time frame is higher than or equal to 8 then the ratio is labelled to be heteroresistant)
- HR? at MIC (60%) ([1]; MP/072.3489, ratio MIC T2/T1): yes (If the ratio of the MIC value in the second time frame over the MIC value in the first time frame is higher than or equal to 8 then the ratio is labelled to be heteroresistant)
- HR? at MIC (75%) ([1]; MP/072.3489, ratio MIC T2/T1): yes (If the ratio of the MIC value in the second time frame over the MIC value in the first time frame is higher than or equal to 8 then the ratio is labelled to be heteroresistant)
